Experimental data from patent US12492163B2, “9H-fluorene derivatives or their pharmaceutically acceptable salts” (priority 2020, dated 2025).

How the values were obtained:
[1] = target: Recombinant human Aβ1-42 peptide (Homo sapiens (Human), UniProt P05067); experiment: Thioflavin T test, antiaggregation activity against beta-amyloid; format: biochemical; conditions: 10 μM test compound, 1.5 μM Aβ1-42; read-out: inh. Aβ aggr. % inh
In short: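 Aβ1-42 (1.5 μM final, HFIP-pretreated) aggregated in HEPES pH 7.4 with 150 mM NaCl, thioflavin T 10 μM, 3% DMSO, compound 10 μM. Fluorescence (ex 440/em 490 nm) read every 300 s with mixing; plateau values minus t=0 give % inhibition; IC50 by non-linear regression against concentration.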

[2] = Pharmacokinetic parameters in plasma and brain of mice; format: in vivo
Method: The research was carried out at the Department of Toxicology and Military Pharmacy, Faculty of Military Health Sciences in Hradec Kralove, Defense University in Brno in the Czech Republic, at the Biomedical Research Center and at the Department of Clinical Biochemistry of the University Hospital Hradec Kralove in the Czech Republic. All procedures were carried out under the supervision of the Ethics Committee of the Faculty of Military Health Sciences (No. 20/19; MO 215611/2019-684800). Male and female ICR-CD1 strain of domestic mice (Mus musculus) (body weight approx. 20-25 g) were used in the research. The animals were kept in standard, appropriately sized cages, divided into groups of a maximum of 8 animals. The animals in the test groups were administered the test compound intraperitoneally (doses in the acute toxicity study: 10, 20, 40 and 60 mg/kg, dose in the study of pharmacokinetic parameters 10 mg/kg). Control groups received 1% Tween 80.
After administration of compound JT-3 at the MTD dose (10 mg/kg), animals were subjected to deep terminal sedation at 0, 3, 5, 10, 20, 30, 45, 60, 90, 120, 240 and 360 minutes after dosing (six animals per time interval; n=6) and their blood was drawn by cardiac puncture into heparinized tubes. Samples were centrifuged (3000×g, 10 minutes, 10° C.). Plasma was stored at −80° C. until analyzed by HPLC. Blood in the cerebral vessels would interfere with the actual concentration levels in the brain tissue, therefore the animals were perfused transcardially with physiological saline (0.9% NaCl) for 5 minutes (10 mL/min). After perfusion, the skull was opened and the brain was carefully removed and stored at −80° C. until analyzed by HPLC.
Quantitative analyzes of JT-3 in plasma and brain were performed by HPLC. The method has been fully validated for plasma and partially validated for brain homogenate according to the EMA and FDA guidelines for the validation of bioanalytical methods [Research, C, Anonymous].

Albino Swiss CD-1 mice = experiment: Passive avoidance task (scopolamine-induced memory disorders); format: in vivo, Mus musculus; conditions: scopolamine 1 mg/kg s.c.
Method: The research was conducted at the Department of Pharmacodynamics, Faculty of Pharmacy, Jagiellonian University in Krakow. All procedures were approved by the 1st and 2nd Local Ethics Committee for Animal Experiments in Krakow (consent no. 53/2017 and 250/2019) and were performed in accordance with the applicable European Union regulation (86/609/EEC). Males of two different strains of domestic mice (Mus musculus) were used in the study: Albino Swiss CD-1 (body weight approx. 20-24 g, age approx. 6 weeks) and C57BL/6J mice (body weight approx. 18-22 g, age approx. 6 weeks). The CD-1 strain was used for the passive avoidance, spontaneous mobility and rotating rod tests, while the C57BL/6J mice were used for the Morris water maze and the Barnes' maze. The animals were kept in standard, appropriately sized cages, divided into groups with a maximum of 10 animals. The animals in the study groups in the learning phase were intraperitoneally administered the test compound 1 h before the start of the experiments (doses in the preliminary test, i.e. in the passive avoidance test: 10, 30 and 60 mg/kg), and 30 minutes later, 1 mg/kg of scopolamine subcutaneously. Two control groups were used in the tests to assess the procognitive activity of JT-3—one of them received saline and the other saline and scopolamine.
The test assesses contextual memory. The apparatus consists of two chambers (white: 26 cm×26 cm×34 cm; dark: 13 cm×7.5 cm×7.5 cm) separated by a door. The test consists of a two-day procedure. On the first day (acquisition phase), test compound or saline was administered to the animals 1 h prior to testing (i.p. administration). In order to induce memory disorders, scopolamine (1 mg/kg, s.c.) was also administered after 30 min. On the first day of testing, the mouse was placed in the white compartment. […] The latency of entry into the dark chamber was measured. […] After 30 s the door between the compartments was opened and, similarly to the acquisition phase, the latency time of entering the dark compartment was measured. […]

Recombinant human Aβ1-42 peptide, sequence (P05067 672-713): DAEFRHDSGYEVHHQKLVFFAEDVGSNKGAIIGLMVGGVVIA

For `O[C@H](CNCC1CC1)[C@H](Cc1ccccc1)NC1c2ccccc2-c2ccccc21` [JT-3, (2R,3S)-3-((9H-fluoren-9-yl)amino)-1-((cyclopropylmethyl)amino)-4-phenylbutan-2-ol], the inhibition at 10 µM [1] was 79%, the Vz ([2]; both, ICR-CD1, mouse, in vivo, ip, 10 mg/kg) was 40.93 ± 4.95 L/kg and the Tmax ([2]; brain, mice, 10 mg/kg i.p.) was 0.9167 ± 0.113 h. The “time of maximum concentration after administration” value ([2]; mice, 10 mg/kg i.p.) was 60 min, the “penetration into the brain” value ([2]; mice, 10 mg/kg i.p., higher concentrations in the CNS than in plasma) was “Very good penetration” and the Half-life ([2]; plasma, elimination phase, mice, 10 mg/kg i.p.) was 2.6907 ± 0.2375 h. For the same compound, the Cmax ([2]; plasma, mice, 10 mg/kg i.p.) was 430.09 ± 57.94 ng/mL, the MRT ([2]; plasma, mice, 10 mg/kg i.p.) was 3.6183 ± 0.2942 h and the Tmax ([2]; plasma, mice, 10 mg/kg i.p.) was 0.3888 ± 0.0828 h. For the same compound, the “λz (terminal phase rate constant)” value ([2]; plasma, mice, 10 mg/kg i.p.) was 0.0045 ± 0.0004 min⁻¹, the Cmax ([2]; sexes, ICR-CD1, mouse, in vivo, ip, 10 mg/kg) was 833 ± 62.3 ng/g and the “latency of entry into the dark compartment, recall phase (day 2) vs scopolamine control” value (“latency … vs scopolamine control” below) (Albino Swiss CD-1 mice; 10 mg/kg i.p., p<0.01) was “statistically significant difference”. For the same compound, the “latency … vs scopolamine control” value (Albino Swiss CD-1 mice; 30 mg/kg i.p.) was “not active” and the “latency … vs scopolamine control” value (Albino Swiss CD-1 mice; 60 mg/kg i.p.) was “not active”.
